Reference: the supplement of paper PMC13380429

Experiments:
Details in all cases: 72 h
HepG2 [1] = assay: drug sensitivity score (DSS) for viability; higher = more toxic; extreme values may be limits of the assay
Calu-3 [2] = assay: as above
Vero E6 [3] = assay: as above
U2OS [4] = assay: as above
Vero E6 [5] = assay: relative viability EC50 (midpoint between 100% and the lowest measured viability); higher = less toxic
U2OS [6] = assay: as above
HepG2 [7] = assay: cell viability relative to DMSO; higher = less toxic
Calu-3 [8] = assay: as above
Vero E6 [9] = assay: as above
U2OS [10] = assay: as above
Caco-2 [11] = assay: drug sensitivity score (DSS) for viability; higher = more toxic; extreme values may be limits of the assay
Caco-2 [12] = assay: relative viability EC50 (midpoint between 100% and the lowest measured viability); higher = less toxic
Caco-2 [13] = assay: cell viability relative to DMSO; higher = less toxic
HepG2 [14] = assay: relative viability EC50 (midpoint between 100% and the lowest measured viability); higher = less toxic

Structure (SMILES) | drug sensitivity score (HepG2 [1]) | drug sensitivity score (Calu-3 [2]) | drug sensitivity score (Vero E6 [3]) | drug sensitivity score (U2OS [4]) | relative viability EC50 (Vero E6 [5]) [µM] | relative viability EC50 (U2OS [6]) [µM] | cell viability (HepG2 [7]; 1 nM) [%] | cell viability (HepG2 [7]; 10 nM) [%] | cell viability (HepG2 [7]; 100 nM) [%] | cell viability (HepG2 [7]; 1000 nM) [%] | cell viability (HepG2 [7]; 10000 nM) [%] | cell viability (Calu-3 [8]; 1 nM) [%] | cell viability (Calu-3 [8]; 10 nM) [%] | cell viability (Calu-3 [8]; 100 nM) [%] | cell viability (Calu-3 [8]; 1000 nM) [%] | cell viability (Calu-3 [8]; 10000 nM) [%] | cell viability (Vero E6 [9]; 1 nM) [%] | cell viability (Vero E6 [9]; 10 nM) [%] | cell viability (Vero E6 [9]; 100 nM) [%] | cell viability (Vero E6 [9]; 1000 nM) [%] | cell viability (Vero E6 [9]; 10000 nM) [%] | cell viability (U2OS [10]; 1 nM) [%] | cell viability (U2OS [10]; 10 nM) [%] | cell viability (U2OS [10]; 100 nM) [%] | cell viability (U2OS [10]; 1000 nM) [%] | cell viability (U2OS [10]; 10000 nM) [%] | drug sensitivity score (Caco-2 [11]) | relative viability EC50 (Caco-2 [12]) [µM] | cell viability (Caco-2 [13]; 1 nM) [%] | cell viability (Caco-2 [13]; 10 nM) [%] | cell viability (Caco-2 [13]; 100 nM) [%] | cell viability (Caco-2 [13]; 1000 nM) [%] | cell viability (Caco-2 [13]; 10000 nM) [%] | relative viability EC50 (HepG2 [14]) [µM]
CC(C)[C@@H](C(=O)Nc1nccs1)c1ccc(Cl)cc1 [4-CMTB] | 1.8 | 1.8 | 0 | 0.1 | > 10 | > 10 | 95.7 | 95.4 | 94.1 | 99.7 | 63.3 | 111 | 107 | 102 | 97.8 | 68.1 | 107 | 107 | 98 | 96.4 | 92.9 | 104 | 108 | 106 | 102 | 85.5 | – | – | – | – | – | – | – | –
CN(C)C(=O)Oc1cccc([N+](C)(C)C)c1 [neostigmine] | – | – | 0 | 0 | > 10 | > 10 | – | – | – | – | – | – | – | – | – | – | 91.1 | 93.1 | 90.6 | 94.8 | 112 | 97.8 | 95.7 | 102 | 97.9 | 100 | 0 | > 10 | 97.2 | 91.9 | 100 | 93.7 | 99.2 | –
CCOC(=O)OC(C)OC1=C(C(=O)Nc2ccccn2)N(C)S(=O)(=O)c2ccccc21 (centres undefined) [ampiroxicam] | 0 | – | – | 0 | – | > 10 | 91.9 | 102 | 101 | 101 | 103 | – | – | – | – | – | – | – | – | – | – | 97.2 | 102 | 93.9 | 98 | 95 | 0 | > 10 | 94.6 | 99.9 | 86.5 | 96.9 | 97.3 | > 10
Cc1nc(NC(=O)N2CCC[C@H]2C(N)=O)sc1-c1csc(C(C)(C)C)n1 [A66] | 0 | – | 0 | 0 | > 10 | > 10 | 84.2 | 96 | 84 | 89.8 | 73.3 | – | – | – | – | – | 98.5 | 96.5 | 95.3 | 101 | 87.9 | 103 | 97.4 | 98.6 | 93 | 88.7 | 1 | > 10 | 98.5 | 87.5 | 95.8 | 92 | 78.9 | > 10
CCCn1c(=O)c2[nH]c(C3CCCC3)nc2n(CCC)c1=O [DPCPX] | 0 | – | 0 | 0 | > 10 | > 10 | 102 | 105 | 99.8 | 101 | 91.5 | – | – | – | – | – | 106 | 107 | 98.2 | 99.8 | 89.1 | 100 | 102 | 99.8 | 96.6 | 100 | 0 | > 10 | 105 | 106 | 106 | 106 | 93.3 | > 10
CCCc1cc(=O)[nH]c(=S)[nH]1 [propylthiouracil] | – | 0 | 0 | 0 | – | – | – | – | – | – | – | – | – | – | – | – | – | – | – | – | – | – | – | – | – | – | – | – | – | – | – | – | – | –
O=[N+]([O-])O[C@@H]1CO[C@H]2[C@@H]1OC[C@@H]2O [isosorbide-mononitrate] | 0 | – | 0 | 0 | > 10 | > 10 | 101 | 108 | 91.2 | 98.7 | 93.3 | – | – | – | – | – | 103 | 103 | 101 | 104 | 94.4 | 96.5 | 96.8 | 93.5 | 96.7 | 97.2 | 0 | > 10 | 100 | 111 | 94.4 | 117 | 114 | > 10
O=c1oc2ccccc2c(O)c1Cc1c(O)c2ccccc2oc1=O [dicoumarol] | – | 0 | 0 | 0 | – | – | – | – | – | – | – | – | – | – | – | – | – | – | – | – | – | – | – | – | – | – | – | – | – | – | – | – | – | –
Nc1nc(=O)c(Br)c(-c2ccccc2)[nH]1 [bropirimine] | 0 | – | 0 | 0 | > 10 | > 10 | 102 | 118 | 92.4 | 103 | 114 | – | – | – | – | – | 94.8 | 98.3 | 92.4 | 98.7 | 102 | 92.8 | 95.1 | 102 | 95.7 | 104 | 0 | > 10 | 96.6 | 91.4 | 102 | 87.8 | 112 | > 10
COC(=O)c1cc(OC)c2c(c1-c1c(CO)cc(OC)c3c1OCO3)OCO2 [bicyclol] | 0 | – | 0 | 0 | > 10 | > 10 | 90.5 | 97.8 | 92.1 | 108 | 100 | – | – | – | – | – | 108 | 105 | 104 | 99.9 | 100 | 101 | 97.6 | 97.8 | 98.2 | 94.8 | 0 | > 10 | 89.9 | 98.7 | 104 | 101 | 101 | > 10
